{"source": "ChEMBL document CHEMBL3885881", "about": "“DrugMatrix”", "species_on_record": "Rattus norvegicus", "assay": "DrugMatrix - Regimen: Daily Repeat", "format": "toxicity, organism-based, Sprague-Dawley", "design": "regimen Daily Repeat, gender Male, age 6-8 weeks", "details": "in vivo, po, 25 mg/kg, route oral GAVAGE, dose level Low, […]; for ABSOLUTE BASOPHIL / ABSOLUTE EOSINOPHIL / ABSOLUTE LYMPHOCYTE / ABSOLUTE MONOCYTE / ABSOLUTE SEGMENTED NEUTROPHIL / BASOPHIL / EOSINOPHIL / ERYTHROCYTE COUNT / HEMATOCRIT / HEMOGLOBIN / LEUKOCYTE COUNT / LYMPHOCYTE / MEAN CORPUSCULAR HEMOGLOBIN / MEAN CORPUSCULAR HEMOGLOBIN CONCENTRATION / MEAN CORPUSCULAR VOLUME / MONOCYTE / NEUTROPHIL / NUCLEATED RED BLOOD CELLS / PLATELET COUNT: tissue Blood; for ALANINE AMINOTRANSFERASE / ALBUMIN / ALKALINE PHOSPHATASE / ASPARTATE AMINOTRANSFERASE / BLOOD UREA NITROGEN / CARBON DIOXIDE / CHLORIDE / CHOLESTEROL / CREATINE PHOSPHOKINASE / CREATININE / GLUCOSE / LACTATE DEHYDROGENASE / LIPASE / PHOSPHORUS / POTASSIUM / SODIUM / TOTAL BILIRUBIN / TOTAL PROTEIN / URIC ACID: tissue Plasma"}
{"smiles": "O=c1ccc2ccccc2o1", "note": "[COUMARIN]", "values": [{"measurement": "ABSOLUTE BASOPHIL", "setting": "72 h, time 3 day", "value": 0, "unit": "CELLS/uL"}, {"measurement": "ABSOLUTE EOSINOPHIL", "setting": "72 h, time 3 day", "value": 0, "unit": "CELLS/uL"}, {"measurement": "ABSOLUTE LYMPHOCYTE", "setting": "72 h, time 3 day", "value": 13415.67, "unit": "CELLS/uL"}, {"measurement": "ABSOLUTE MONOCYTE", "setting": "72 h, time 3 day", "value": 244.67, "unit": "CELLS/uL"}, {"measurement": "ABSOLUTE SEGMENTED NEUTROPHIL", "setting": "72 h, time 3 day", "value": 973, "unit": "CELLS/uL"}, {"measurement": "BASOPHIL", "setting": "72 h, time 3 day", "value": 0, "unit": "%"}, {"measurement": "EOSINOPHIL", "setting": "72 h, time 3 day", "value": 0, "unit": "%"}, {"measurement": "ERYTHROCYTE COUNT", "setting": "72 h, time 3 day", "value": 5.76, "unit": "x10E6/uL"}, {"measurement": "HEMATOCRIT", "setting": "72 h, time 3 day", "value": 36.97, "unit": "%"}, {"measurement": "HEMOGLOBIN", "setting": "72 h, time 3 day", "value": 14.6, "unit": "G/DL"}, {"measurement": "LEUKOCYTE COUNT", "setting": "72 h, time 3 day", "value": 14.63, "unit": "x10E3/uL"}, {"measurement": "LYMPHOCYTE", "setting": "72 h, time 3 day", "value": 92, "unit": "%"}, {"measurement": "MEAN CORPUSCULAR HEMOGLOBIN", "setting": "72 h, time 3 day", "value": 25.4, "unit": "pg"}, {"measurement": "MEAN CORPUSCULAR HEMOGLOBIN CONCENTRATION", "setting": "72 h, time 3 day", "value": 39.5, "unit": "G/DL"}, {"measurement": "MEAN CORPUSCULAR VOLUME", "setting": "72 h, time 3 day", "value": 64.27, "unit": "fL"}, {"measurement": "MONOCYTE", "setting": "72 h, time 3 day", "value": 1.67, "unit": "%"}, {"measurement": "NEUTROPHIL", "setting": "72 h, time 3 day", "value": 6.33, "unit": "%"}, {"measurement": "NUCLEATED RED BLOOD CELLS", "setting": "72 h, time 3 day", "value": "0 /100WBC"}, {"measurement": "PLATELET COUNT", "setting": "72 h, time 3 day", "value": 1015, "unit": "x10E3/uL"}, {"measurement": "ALANINE AMINOTRANSFERASE", "setting": "72 h, time 3 day", "value": 75, "unit": "u/L"}, {"measurement": "ALBUMIN", "setting": "72 h, time 3 day", "value": 4.13, "unit": "G/DL"}, {"measurement": "ALKALINE PHOSPHATASE", "setting": "72 h, time 3 day", "value": 469.67, "unit": "u/L"}, {"measurement": "ASPARTATE AMINOTRANSFERASE", "setting": "72 h, time 3 day", "value": 106.33, "unit": "u/L"}, {"measurement": "BLOOD UREA NITROGEN", "setting": "72 h, time 3 day", "value": 10.67, "unit": "mg/dL"}, {"measurement": "CARBON DIOXIDE", "setting": "72 h, time 3 day", "value": 33.67, "unit": "mmol/L"}, {"measurement": "CHLORIDE", "setting": "72 h, time 3 day", "value": 101.67, "unit": "MEQ/L"}, {"measurement": "CHOLESTEROL", "setting": "72 h, time 3 day", "value": 71.67, "unit": "mg/dL"}, {"measurement": "CREATINE PHOSPHOKINASE", "setting": "72 h, time 3 day", "value": 272.67, "unit": "u/L"}, {"measurement": "CREATININE", "setting": "72 h, time 3 day", "value": 0.12, "unit": "mg/dL"}, {"measurement": "GLUCOSE", "setting": "72 h, time 3 day", "value": 148, "unit": "mg/dL"}, {"measurement": "LACTATE DEHYDROGENASE", "setting": "72 h, time 3 day", "value": 117, "unit": "u/L"}, {"measurement": "LIPASE", "setting": "72 h, time 3 day", "value": 13.67, "unit": "u/L"}, {"measurement": "PHOSPHORUS", "setting": "72 h, time 3 day", "value": 11.83, "unit": "mg/dL"}, {"measurement": "POTASSIUM", "setting": "72 h, time 3 day", "value": 6.75, "unit": "MEQ/L"}, {"measurement": "SODIUM", "setting": "72 h, time 3 day", "value": 146.1, "unit": "MEQ/L"}, {"measurement": "TOTAL BILIRUBIN", "setting": "72 h, time 3 day", "value": 0.13, "unit": "mg/dL"}, {"measurement": "TOTAL PROTEIN", "setting": "72 h, time 3 day", "value": 5.1, "unit": "G/DL"}, {"measurement": "URIC ACID", "setting": "72 h, time 3 day", "value": 1.27, "unit": "mg/dL"}, {"measurement": "ABSOLUTE BASOPHIL", "setting": "120 h, time 5 day", "value": 0, "unit": "CELLS/uL"}, {"measurement": "ABSOLUTE EOSINOPHIL", "setting": "120 h, time 5 day", "value": 0, "unit": "CELLS/uL"}, {"measurement": "ABSOLUTE LYMPHOCYTE", "setting": "120 h, time 5 day", "value": 11975.33, "unit": "CELLS/uL"}, {"measurement": "ABSOLUTE MONOCYTE", "setting": "120 h, time 5 day", "value": 0, "unit": "CELLS/uL"}, {"measurement": "ABSOLUTE SEGMENTED NEUTROPHIL", "setting": "120 h, time 5 day", "value": 1091.33, "unit": "CELLS/uL"}, {"measurement": "BASOPHIL", "setting": "120 h, time 5 day", "value": 0, "unit": "%"}, {"measurement": "EOSINOPHIL", "setting": "120 h, time 5 day", "value": 0, "unit": "%"}, {"measurement": "ERYTHROCYTE COUNT", "setting": "120 h, time 5 day", "value": 5.78, "unit": "x10E6/uL"}, {"measurement": "HEMATOCRIT", "setting": "120 h, time 5 day", "value": 36.27, "unit": "%"}, {"measurement": "HEMOGLOBIN", "setting": "120 h, time 5 day", "value": 14.1, "unit": "G/DL"}, {"measurement": "LEUKOCYTE COUNT", "setting": "120 h, time 5 day", "value": 13.07, "unit": "x10E3/uL"}, {"measurement": "LYMPHOCYTE", "setting": "120 h, time 5 day", "value": 91.33, "unit": "%"}, {"measurement": "MEAN CORPUSCULAR HEMOGLOBIN", "setting": "120 h, time 5 day", "value": 24.4, "unit": "pg"}, {"measurement": "MEAN CORPUSCULAR HEMOGLOBIN CONCENTRATION", "setting": "120 h, time 5 day", "value": 38.9, "unit": "G/DL"}, {"measurement": "MEAN CORPUSCULAR VOLUME", "setting": "120 h, time 5 day", "value": 62.7, "unit": "fL"}, {"measurement": "MONOCYTE", "setting": "120 h, time 5 day", "value": 0, "unit": "%"}, {"measurement": "NEUTROPHIL", "setting": "120 h, time 5 day", "value": 8.67, "unit": "%"}, {"measurement": "NUCLEATED RED BLOOD CELLS", "setting": "120 h, time 5 day", "value": "0 /100WBC"}, {"measurement": "PLATELET COUNT", "setting": "120 h, time 5 day", "value": 1251, "unit": "x10E3/uL"}, {"measurement": "ALANINE AMINOTRANSFERASE", "setting": "120 h, time 5 day", "value": 69, "unit": "u/L"}, {"measurement": "ALBUMIN", "setting": "120 h, time 5 day", "value": 4.17, "unit": "G/DL"}, {"measurement": "ALKALINE PHOSPHATASE", "setting": "120 h, time 5 day", "value": 466, "unit": "u/L"}, {"measurement": "ASPARTATE AMINOTRANSFERASE", "setting": "120 h, time 5 day", "value": 95.67, "unit": "u/L"}, {"measurement": "BLOOD UREA NITROGEN", "setting": "120 h, time 5 day", "value": 13.33, "unit": "mg/dL"}, {"measurement": "CARBON DIOXIDE", "setting": "120 h, time 5 day", "value": 27, "unit": "mmol/L"}, {"measurement": "CHLORIDE", "setting": "120 h, time 5 day", "value": 102.67, "unit": "MEQ/L"}, {"measurement": "CHOLESTEROL", "setting": "120 h, time 5 day", "value": 64.33, "unit": "mg/dL"}, {"measurement": "CREATINE PHOSPHOKINASE", "setting": "120 h, time 5 day", "value": 297, "unit": "u/L"}, {"measurement": "CREATININE", "setting": "120 h, time 5 day", "value": 0.17, "unit": "mg/dL"}, {"measurement": "GLUCOSE", "setting": "120 h, time 5 day", "value": 157.33, "unit": "mg/dL"}, {"measurement": "LACTATE DEHYDROGENASE", "setting": "120 h, time 5 day", "value": 402.33, "unit": "u/L"}, {"measurement": "LIPASE", "setting": "120 h, time 5 day", "value": 12.33, "unit": "u/L"}, {"measurement": "PHOSPHORUS", "setting": "120 h, time 5 day", "value": 12, "unit": "mg/dL"}, {"measurement": "POTASSIUM", "setting": "120 h, time 5 day", "value": 6.55, "unit": "MEQ/L"}, {"measurement": "SODIUM", "setting": "120 h, time 5 day", "value": 143.47, "unit": "MEQ/L"}, {"measurement": "TOTAL BILIRUBIN", "setting": "120 h, time 5 day", "value": 0.23, "unit": "mg/dL"}, {"measurement": "TOTAL PROTEIN", "setting": "120 h, time 5 day", "value": 5.73, "unit": "G/DL"}, {"measurement": "URIC ACID", "setting": "120 h, time 5 day", "value": 1.8, "unit": "mg/dL"}]}
